Assay results published in US20220347167A1, “A NEW TREATMENT FOR MEIBOMIAN GLAND DYSFUNCTION” (The Schepens Eye Research Institute, Inc., priority 2019, published 2022).

System: HIF1α
Experiment: HIF1α expression in CoCl2-stimulated HepG2 cells (positive control for HIF1α antibody)
Assay type: cell-based, human
Conditions: 4 hours of CoCl2 treatment
Experimental: After culture in DMEM/F12+10% FBS under normoxic conditions for 7 days, cells were exposed to 21% O2, 1% O2 and 10 μM Roxa, alone or in combination, for an additional 6 hours. The cells were lysed in 2× Laemmli sample buffer (Bio-Rad Laboratories, Hercules, Calif.) and sonicated to extract nuclear protein [Andersen et al. (2002) Current biology: CB 12:1-11]. Human hepatocellular carcinoma cell lines (HepG2 cells) (America Type Culture Collection, Manassas, Va.), which express high concentration of HIF1α under CoCl2 stimulation for 4 hours [Yoo et al. (2014) Journal of cellular biochemistry 115:1147-1158], were used as a positive control for HIF1α antibody. The CoCl2 was purchased from Sigma-Aldrich Corp (St. Louis, Mo.). Cell lysates were then evaluated for HIF1α (1:1000, BD Biosciences, San Jose, Calif.) or β-actin (1:10,000, Cell Signaling Technology) expression. Secondary antibodies were horseradish peroxidase (HRP)-conjugated goat anti-rabbit or goat anti-mouse IgG (both 1:5000, Sigma-Aldrich). Densitometry was performed using ImageJ (at the World Wide Web website of rsb.info.nih.gov/ij).

SMILES: [Cl-].[Cl-].[Co+2] [CoCl2, cobalt (II) chloride]
- HIF1α protein in HepG2 cell lysates: substantial amounts of HIF1α protein
